In patent publication US20170275287A1, “NOVEL N2, N4, N7, 6-TETRASUBSTITUTED PTERIDINE-2,4,7-TRIAMINE AND 2, 4, 6, 7-TETRASUBSTITUTED PTERIDINE COMPOUNDS AND METHODS OF SYNTHESIS AND USE THEREOF” (Janus Biotherapeutics, Inc., priority 2014, published 2017):
Where two headings read alike, the source gives them in different places.

Tests used:
TLR9 = molecular target: T1, TLR9 (Rattus norvegicus, UniProt Q6Y1S0); assay: PK/PD study: serum cytokines after ODN CpG 1668 challenge; assay type: in vivo, Sprague-Dawley rats
T1 construct: endogenous in cells; host or cells: live Sprague-Dawley rats
T1 sequence (Q6Y1S0 24-1032): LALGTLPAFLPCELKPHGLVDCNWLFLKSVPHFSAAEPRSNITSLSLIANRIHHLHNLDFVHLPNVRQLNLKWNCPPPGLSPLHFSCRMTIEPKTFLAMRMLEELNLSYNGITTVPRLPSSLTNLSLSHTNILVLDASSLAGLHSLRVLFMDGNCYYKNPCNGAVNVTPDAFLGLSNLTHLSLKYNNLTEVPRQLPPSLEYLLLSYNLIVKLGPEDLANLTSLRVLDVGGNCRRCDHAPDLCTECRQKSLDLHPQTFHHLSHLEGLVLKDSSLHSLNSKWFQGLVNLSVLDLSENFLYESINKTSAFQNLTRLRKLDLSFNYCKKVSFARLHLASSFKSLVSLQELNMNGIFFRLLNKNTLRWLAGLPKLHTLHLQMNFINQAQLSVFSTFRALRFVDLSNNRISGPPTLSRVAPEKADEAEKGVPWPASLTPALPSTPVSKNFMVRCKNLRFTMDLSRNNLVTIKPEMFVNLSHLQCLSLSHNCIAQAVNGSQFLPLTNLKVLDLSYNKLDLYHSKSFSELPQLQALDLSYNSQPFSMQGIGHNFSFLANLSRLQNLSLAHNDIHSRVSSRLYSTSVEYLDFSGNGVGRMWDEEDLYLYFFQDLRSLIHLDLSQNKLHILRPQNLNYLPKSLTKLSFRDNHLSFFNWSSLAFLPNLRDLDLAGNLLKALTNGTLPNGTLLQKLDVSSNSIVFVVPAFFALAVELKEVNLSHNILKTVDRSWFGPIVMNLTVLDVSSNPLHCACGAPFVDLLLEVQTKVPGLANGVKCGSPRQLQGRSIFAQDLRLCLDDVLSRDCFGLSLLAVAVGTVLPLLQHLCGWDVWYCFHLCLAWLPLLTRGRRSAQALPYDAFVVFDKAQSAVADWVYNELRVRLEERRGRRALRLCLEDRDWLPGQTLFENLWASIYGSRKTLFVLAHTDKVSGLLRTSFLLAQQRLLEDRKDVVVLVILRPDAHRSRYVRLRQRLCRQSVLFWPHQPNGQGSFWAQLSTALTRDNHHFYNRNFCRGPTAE
Experimental: The objective of this study was to collect serum following ODN CpG 1668 administration and to determine the pharmacokinetics of JB6121 following oral administration to Sprague-Dawley rats for 7 days. There was a pre-test to establish the appropriate agonist dose for a TLR9 ligand, CpG DNA ODN 1668, in rats using serum IL-12 as the monitored cytokine, groups 1-3, see table 6. Whole blood samples for serum were collected terminally from each animal 3 hours following dosing with ODN CpG 1668. Serum IL-12 was determined by ELISA, data not shown. An agonist dose of lmg/kg was selected for the next phase of the study. For groups administered JB6121 (Groups 4-7), formulations were corrected for base/salt components and not corrected for purity. On the initial day of dose administration, JB6121 formulations were prepared using sterile PBS to the adjusted target dosing concentrations using a factor of 0.8265 to correct for salt content. Dosing was performed as outlined in the following Table 9.
Animals were assigned to four groups (groups 4-7) and administered JB6121 at 0.39, 1.56, 6.25, or 25 mg/kg in a volume of […] once per day by oral gavage for 7 days. On Day 7, two hours following the JB6121 dose (approximate Cmax), ODN CpG 1668 was administered as a single IP dose at 1 mg/kg in a volume of 1 mL/kg. Whole blood samples for bioanalysis and serum samples for serum cytokine analysis were collected by tail vein bleeding or terminally by cardiac puncture at t=2, 3, 4 and 5 h.
Serum IL-12 was monitored at three hours post agonist challenge as a measure of pharmacodynamic JB6121 activity, see FIG. 4. The apparent ID50 post 7-day exposure is approximately 11 ng*h/ml AUC or roughly 0.5 mg/kg dose. […] This would lead to a fourfold greater, 0.5 mg/kg versus 2.4 mg/kg, expected activity in the 7-day rat versus the 1-day mouse. […] We also used multiplex analysis to measure additional cytokines and chemokines in the serum samples. The measurements delivered results for MIP-1a, MIP-2, MCP-1 and IP-10.

CYP2D6 = molecular target: T2, CYP2D6 (Homo sapiens, UniProt P10635); assay: Cytochrome p450 inhibition (CEREP); assay type: in vitro ADME; conditions: 10 μM
T2 construct: CEREP (contract laboratory)
Experimental: (§1) JB6121 was also tested for CYP inhibition, see Table 6 below. Assays where performed by CEREP, Seattle, Wash., according to Atkinson, A et al., 2005, Drug Metab. Dispos. 33:1637-1647.

CYP2C8 = molecular target: T3, CYP2C8 (Homo sapiens, UniProt P10632); assay: Cytochrome p450 inhibition (CEREP); assay type: in vitro ADME; conditions: 10 μM
T3 construct: CEREP (contract laboratory)
Experimental: as §1

CYP1A2 = molecular target: T4, CYP1A2 (Homo sapiens, UniProt P05177); assay: Cytochrome p450 inhibition (CEREP); assay type: in vitro ADME; conditions: 10 μM
T4 construct: CEREP (contract laboratory)
Experimental: as §1

CYP3A4 = molecular target: T5, CYP3A4 (Homo sapiens, UniProt P08684); assay: Cytochrome p450 inhibition (CEREP); assay type: in vitro ADME; conditions: 10 μM
T5 construct: CEREP (contract laboratory)
Experimental: as §1

P-glycoprotein = molecular target: T6, P-glycoprotein (Homo sapiens, UniProt P08183); assay: P-glycoprotein inhibition (CEREP); assay type: in vitro ADME
T6 construct: CEREP (contract laboratory)
Experimental: Preliminary screening measures were conducted by CEREP. All values fall within acceptable limits (Table 5). Solubility assays where performed by CEREP, Seattle, Wash., according to Lipinski, C. A. et al., 1997, Adv. Drug Del. Rev., 46:3-26. Protein binding assays where performed by CEREP, Seattle, Wash., according to Banker, M. J. et al., 2003, J. Pharm. Sci., 92:967-974. Permeability assays where performed by CEREP, Seattle, Wash. according to Hildalgo, I. J., 1998, Gastroenterology, 96:736-749. Metabolic stability assays where performed by CEREP, Seattle, Wash., according to Obach, R. S. et al., 1997, J. Pharmacol. Exp. Ther., 283:46-58. P-glycoprotein inhibition assays where performed by CEREP, Seattle, Wash., according to Polli, J. W. et al., 2001, J. Pharm. Exp. Ther., 299:620-628. Cell viability assays where performed by CEREP, Seattle, Wash., according to Mosmann, T., 1983, J. Immunol. Met. 65:55-62. hERG automated patch clamp assays where performed by CEREP, Seattle, Wash., according to Mathes, C., 2006, Expert Opin. Ther. Targets, 10:230-241.

T5 sequence (P08684 whole entry): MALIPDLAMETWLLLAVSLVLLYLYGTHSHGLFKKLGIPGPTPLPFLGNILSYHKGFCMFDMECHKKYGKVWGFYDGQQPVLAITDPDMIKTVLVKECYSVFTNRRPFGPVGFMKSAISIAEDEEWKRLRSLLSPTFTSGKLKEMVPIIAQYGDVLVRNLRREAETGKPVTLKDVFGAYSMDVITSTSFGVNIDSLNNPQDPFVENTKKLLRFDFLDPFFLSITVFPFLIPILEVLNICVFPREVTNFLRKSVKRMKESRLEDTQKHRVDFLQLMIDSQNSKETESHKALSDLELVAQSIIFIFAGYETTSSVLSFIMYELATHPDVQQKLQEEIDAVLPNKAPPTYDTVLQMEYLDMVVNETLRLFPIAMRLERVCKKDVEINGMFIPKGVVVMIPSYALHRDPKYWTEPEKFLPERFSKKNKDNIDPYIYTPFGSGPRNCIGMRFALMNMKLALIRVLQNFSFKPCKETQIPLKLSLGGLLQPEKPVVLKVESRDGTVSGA
T3 sequence (P10632 whole entry): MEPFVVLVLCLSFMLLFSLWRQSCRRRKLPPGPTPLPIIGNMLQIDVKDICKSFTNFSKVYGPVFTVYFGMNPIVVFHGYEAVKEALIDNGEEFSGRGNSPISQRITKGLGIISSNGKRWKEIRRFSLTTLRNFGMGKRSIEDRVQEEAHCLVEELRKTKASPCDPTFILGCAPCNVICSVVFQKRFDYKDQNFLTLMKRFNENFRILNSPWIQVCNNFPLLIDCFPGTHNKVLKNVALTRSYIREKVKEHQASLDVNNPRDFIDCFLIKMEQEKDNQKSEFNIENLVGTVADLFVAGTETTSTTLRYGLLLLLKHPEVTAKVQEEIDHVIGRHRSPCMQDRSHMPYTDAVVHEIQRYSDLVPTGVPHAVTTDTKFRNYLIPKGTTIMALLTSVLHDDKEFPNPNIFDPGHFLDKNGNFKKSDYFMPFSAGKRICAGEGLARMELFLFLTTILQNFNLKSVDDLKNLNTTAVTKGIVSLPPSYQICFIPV
T4 sequence (P05177 whole entry): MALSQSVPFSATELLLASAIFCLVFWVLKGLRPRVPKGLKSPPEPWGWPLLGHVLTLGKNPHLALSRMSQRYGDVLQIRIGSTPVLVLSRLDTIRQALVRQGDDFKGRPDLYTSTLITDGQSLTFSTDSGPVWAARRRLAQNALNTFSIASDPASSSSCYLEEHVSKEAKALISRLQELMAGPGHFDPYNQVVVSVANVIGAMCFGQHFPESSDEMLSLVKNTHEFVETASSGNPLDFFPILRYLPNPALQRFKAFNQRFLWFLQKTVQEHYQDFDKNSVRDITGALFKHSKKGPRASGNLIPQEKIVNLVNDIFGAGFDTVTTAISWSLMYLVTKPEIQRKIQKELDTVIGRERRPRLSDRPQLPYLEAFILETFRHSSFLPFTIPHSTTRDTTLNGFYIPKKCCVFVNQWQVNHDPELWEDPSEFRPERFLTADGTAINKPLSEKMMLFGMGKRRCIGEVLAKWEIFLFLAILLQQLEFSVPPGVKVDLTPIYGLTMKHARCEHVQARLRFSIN
T2 sequence (P10635 whole entry): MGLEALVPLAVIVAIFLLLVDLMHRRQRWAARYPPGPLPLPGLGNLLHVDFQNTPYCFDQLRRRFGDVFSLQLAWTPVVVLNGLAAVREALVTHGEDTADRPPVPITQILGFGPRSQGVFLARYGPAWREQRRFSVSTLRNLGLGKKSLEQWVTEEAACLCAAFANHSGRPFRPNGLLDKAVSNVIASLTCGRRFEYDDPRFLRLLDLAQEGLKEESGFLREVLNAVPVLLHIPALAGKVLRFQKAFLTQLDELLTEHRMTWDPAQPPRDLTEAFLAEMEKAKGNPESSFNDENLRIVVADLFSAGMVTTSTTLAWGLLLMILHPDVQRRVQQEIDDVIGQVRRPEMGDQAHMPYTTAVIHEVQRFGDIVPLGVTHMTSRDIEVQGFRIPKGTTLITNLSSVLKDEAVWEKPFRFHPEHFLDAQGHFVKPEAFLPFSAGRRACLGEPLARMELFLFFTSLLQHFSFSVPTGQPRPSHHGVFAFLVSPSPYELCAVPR
T6 sequence (P08183 whole entry): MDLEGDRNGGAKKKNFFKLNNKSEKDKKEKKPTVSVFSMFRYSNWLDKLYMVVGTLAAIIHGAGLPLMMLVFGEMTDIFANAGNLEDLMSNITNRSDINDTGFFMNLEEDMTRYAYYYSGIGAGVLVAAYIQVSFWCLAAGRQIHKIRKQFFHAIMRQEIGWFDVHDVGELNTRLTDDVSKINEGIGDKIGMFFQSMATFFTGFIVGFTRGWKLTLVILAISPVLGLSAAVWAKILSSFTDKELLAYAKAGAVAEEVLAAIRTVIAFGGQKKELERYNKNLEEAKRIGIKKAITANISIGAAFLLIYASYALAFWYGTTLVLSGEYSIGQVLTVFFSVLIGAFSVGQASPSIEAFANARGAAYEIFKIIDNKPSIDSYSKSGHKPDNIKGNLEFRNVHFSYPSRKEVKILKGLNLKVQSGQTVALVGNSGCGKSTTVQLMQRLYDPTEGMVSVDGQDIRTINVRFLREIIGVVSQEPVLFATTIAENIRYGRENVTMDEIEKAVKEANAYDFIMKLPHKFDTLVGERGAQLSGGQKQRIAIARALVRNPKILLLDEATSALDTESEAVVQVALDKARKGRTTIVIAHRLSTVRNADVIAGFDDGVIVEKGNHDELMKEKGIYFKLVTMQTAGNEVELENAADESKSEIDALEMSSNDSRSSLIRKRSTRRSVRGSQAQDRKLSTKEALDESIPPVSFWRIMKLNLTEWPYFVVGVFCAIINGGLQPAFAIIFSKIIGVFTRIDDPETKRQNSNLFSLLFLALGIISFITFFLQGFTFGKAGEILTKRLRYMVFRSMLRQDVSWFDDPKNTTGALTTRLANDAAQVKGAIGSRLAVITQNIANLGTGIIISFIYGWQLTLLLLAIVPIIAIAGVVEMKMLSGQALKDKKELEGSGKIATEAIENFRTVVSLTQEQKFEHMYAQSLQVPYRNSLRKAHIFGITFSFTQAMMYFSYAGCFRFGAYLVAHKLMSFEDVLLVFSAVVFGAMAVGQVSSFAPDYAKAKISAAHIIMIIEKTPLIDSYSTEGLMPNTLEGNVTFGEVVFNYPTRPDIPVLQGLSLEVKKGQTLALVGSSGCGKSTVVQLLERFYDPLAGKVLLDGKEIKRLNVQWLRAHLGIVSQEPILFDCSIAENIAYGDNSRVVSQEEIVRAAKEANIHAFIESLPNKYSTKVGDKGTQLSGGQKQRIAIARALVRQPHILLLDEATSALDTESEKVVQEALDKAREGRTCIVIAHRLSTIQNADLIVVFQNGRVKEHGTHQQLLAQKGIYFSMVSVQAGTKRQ

## CN1CCN(c2nc(NCCN3CCOCC3)c3nc(Cl)c(NCCN4CCOCC4)nc3n2)CC1 [JB6121, 6-chloro-2-(4-methylpiperazin-1-yl)-N^4,N^7-bis(2-morpholinoethyl)pteridine-4,7-diamine]
TLR9; rat, po, serum IL-12, 3 h post agonist challenge, read-out: apparent ID50 post 7-day exposure, as dose
  ED50: ~0.5 mg/kg
TLR9; rat, 1.56 mg/kg dose, PO daily x7 days
  inhibition at 1.56 mg/kg: > 80%
TLR9; rat, serum IP-10, read-out: ID50, IP-10 (multiplex analysis)
  ED50: ~2.8 mg/kg
TLR9; serum IL-12, 3 h post agonist challenge
  apparent ID50 post 7-day exposure, as AUC: approximately 11 ng*h/ml
CYP2D6
  CYP2D6 Mean % Control: 80.9%
CYP2C8
  CYP2C8 Mean % Control: 87.7%
CYP1A2
  CYP1A2 Mean % Control: 97.0%
CYP3A4; BFC substrate
  CYP3A4, BFC substrate Mean % Control: 94.1%
CYP3A4; BzRes substrate
  CYP3A4, BzRes substrate Mean % Control: 104.8%
P-glycoprotein
  inhibition at 100 µM: 1%
